Test results as given in patent US20200237871A1, “METHODS FOR MITIGATING LIVER INJURY AND PROMOTING LIVER HYPERTROPHY, REGENERATION AND CELL ENGRAFTMENT IN CONJUNCTION WITH RADIATION AND/OR RADIOMIMETIC TREATMENTS” (Janssen Pharmaceutica NV, priority 2019, published 2020).

What was measured:
Format in all cases: in vivo, mouse
[1] = system: Hemophilia A mice; assay: Survival after tail bleed challenge (Example 6); conditions: HIR+LSECs+drug, control Hemophilia A mice 100% died within 5 days
Excerpt: (§1) 8-16-week-old male C57/BL6 mice, 8-16-week-old female and male B6129SF2/J mice (donor for isolating LSECs) and 8-16-week-old female and male Hemophilia mice (F^8tm1Kaz) mice were used in this study. Mice were housed in groups of up to 5 in micro-isolator cages on stainless steel racks (Allentown, Inc., Allentown, N.J.) with a total floor space of 500 cm^2. The cages utilized an external water bottle and a dual feeder rack (Fisher Scientific, Hampton, N.H.). These cages were stored in the storage rack which provided temperature, humidity, and ventilation control to each individual cage (Allentown, Inc.). Bed-o'Cobs ⅛″ (Fisher Scientific) were used as bedding material in each cage.
(§2) The methods were identical to Experiment 5 as described above; including the preparation of test articles (solutions of RWJ-800088 and AdHGF), isolation and transplant of LSECs, and Hepatic irradiation.
The livers of mice were irradiated at 50 Gy by using an X-ray irradiator (SARRP). At 24 hours post-irradiation, the LSECs (1×10^6 cells/mouse) were injected to the mouse through tail vein. An incision was made in the tail from each mouse at day 60 after hepatic irradiation (HIR) and subjected to the bleeding test.
RWJ-800088 (300 μg/kg) was administrated subcutaneously at 10 min after LSEC transplantation. AdHGF at 1×10^9 PFU/mouse was administrated intraperitoneally at 24 hours after LSEC transplantation. […]

[2] = system: DPPIV−/− knockout mice; assay: LSEC engraftment/repopulation of irradiated liver by DPPIV staining (Examples 2 and 3)
Experimental: 8-12-week-old male and female Di-peptyl peptidase IV (DPPIV) −/− knockout mice and 8-12-week-old male and female C57Bl6 mice were used in this study. Animals were weighed in the beginning of the experiment and before tissue collection. All animals were housed in the Institute for Animal Studies at Albert Einstein College of medicine and fed regular rodent chow. All experiments were performed to according to protocols approved by Institutional Animal Care and Use Committee at Albert Einstein College of Medicine. Animals were made cirrhotic using CCl4 administration (intraperitoneal [IP] injections twice a week for at least 11 weeks).
Image-guided external beam irradiation was performed using a small animal radiation research platform (SARRP, Xstrahl Inc., Suwanee, Ga.). Mice were given gastrografin contrast through gavage to improve visualization of the gastrointestinal (GI) tract. After approximately 2 minutes, mice were positioned on a tubular couch and anesthetized with ˜2% Isofluorane (Isothesia, USP) in 2 L/min pure oxygen. A cone-beam computed tomography (CBCT) scan was acquired and a treatment plan irradiating the median lobe and right lobe was generated using the MuriPlan software. […] Within the targeted lobes, the position of the isocenter was chosen to minimize irradiation of the GI tract, spine, and heart (the maximum dose to these organs was kept below 10 Gy). Targets were irradiated with 50 Gy X-rays at 220 kVp energy and 13 mA tube current (dose rate of 2.4-2.5 Gy/min) using a 1 mm copper filter for beam hardening.
TPOm was diluted in sterile PBS to a 10 mg/ml stock. The stock was stored at −20° C. and allowed to come to room temperature prior to administration. TPOm was administered as a single dose (300 μg/kg) via subcutaneous injection 10 minutes after the transplant procedure.
DPPIV was selected as a marker for engraftment of exogenous LSECs in the DPPIV (−/−) animals. […] Slide imaging was done using a Perkin Elmer P250 High Capacity Slide Scanner.
LSECs were isolated from the single-cell suspension using CD146 microbeads (Miltenyi Biotec GmbH #130-092-007).
Following isolation of LSECs, 500×10^5 LSECs are transplanted via intrasplenic injection into healthy adult mice anesthetized with Isoflurane (Isothesia, USP) 24 hrs post HIR. Buprenorphine is given post-op as an analgesic.
To test the efficacy of TPOm as an agent that can cause LSEC engraftment, DPPIV−/− knockout mice received 50GY hepatic irradiation (HIR) to the median and right lobes of the liver using external-beam CT-guided x-ray irradiation, and LSECs that express DPPIV (FIG. 2A).
The methods were identical to those described above with the exception that the LSEC transplant was administered 4-5 days post irradiation and the TPOm or Romiplostim were administered approximately 10 minutes post LSEC transplant.

[3] = system: Hemophilia A mice; assay: Drabkin's tail bleeding assay (Example 6)
Excerpt: as §1, §2
The livers of mice were irradiated at 50 Gy by using an X-ray irradiator (SARRP). At 24 hours post-irradiation, the LSECs (1×10^6 cells/mouse) were injected to the mouse through tail vein. […]
A tail bleeding test was performed in which the extent of bleeding and time to clotting over the course of 30 minutes was evaluated. FVIII protein levels were evaluated by Western blot and mRNA profiling in the blood and liver to evaluate the extent to which there was engraftment of functioning LSECs that produce FVIII. […]

methoxypolyethyleneglycol20000-propionyl-L-Isoleucyl-L-Glutamyl-Glycyl-L-Prolyl-L-Threonyl-L-Leucyl-L-Arginyl-L-Glutaminyl-L-2-Naphthylalanyl-L-Leucyl-L-Alanyl-L-Alanyl-L-Arginyl-Sarcosyl-Ne-(methoxypolyethyleneglycol20000-propionyl-L-Isoleucyl-L-Glutamyl-Glycyl-L-Prolyl-L-Threonyl-L-Leucyl-L-Arginyl-L-Glutaminyl-L-2-Naphthyl alanyl-L-Leucyl-L-Alanyl-L-Alanyl-L-Arginyl-Sarcosyl-)-Lysinamide [RWJ-800088]
survival 30 days post tail bleed challenge [1]: 100%
repopulation of irradiated liver by transplanted DPPIV(+/+) LSECs (DPPIV staining) ([2]; 50GY HIR + LSEC transplant 24 hrs post HIR, growth stimulus given after transplant, listed as TPOm): massive LSEC repopulation
animals with some level of hepatic repopulation ([2]; LSEC+TPOm+HIR): 6/7
Engraftment when LSEC transplant is administered 24 hours post irradiation ([2]; targeted liver irradiation (50 Gy)): Yes
Engraftment when LSEC transplant is administered 4-5 days post irradiation ([2]; targeted liver irradiation (50 Gy), drug approximately 10 minutes post LSEC transplant): Yes
haemoglobin loss (haemoglobin concentration in the collection tube) compared to FVIII deficient model ([3]; HIR 50 Gy + LSECs + drug): significant decrease
bleeding and clotting time in functional bleeding assay ([3]; HIR + LSEC transplantation + RWJ-800088): reduced bleeding and clotting time similar to non-Hemophilia A controls
